This is an account of results in article PMC10424242, “Macrocyclic Peptidomimetic Plasmepsin X Inhibitors with Potent In Vitro and In Vivo Antimalarial Activity” (Journal of Medicinal Chemistry, 2023).

One series concerns the target cathepsin D (CatD) (Homo sapiens, UniProt P07339). As to the kind of experiment: FRET-based CatD inhibition assay (selectivity counter screen). Format: biochemical. Here is the method:
A fluorescence resonance energy transfer (FRET)-based assay was performed to assess the ability of the compounds to inhibit PMIV, CatD, and BACE1. Serial dilutions of test compounds were dispensed in a white 96-well plate. […] The mixture was incubated for 20 min at 37 °C. […] IC50 values were calculated with GraphPad Prism 8.0 using the nonlinear regression, variable slope (four parameters). Compounds were tested in triplicate.
Background: The purpose of a counterscreen is to sort out artefacts and off-target activity.

Series [1] can be described thus: Liver microsomal metabolic stability. The class given is in vitro ADME, mouse. Here is the method: Microsomal stability assays are performed as described elsewhere.[41] Test compounds and pooled mouse liver microsomes are incubated in potassium phosphate buffer in the presence of the cofactor NADPH at 37 °C. Reaction mixtures (700 μL) contain a final concentration of 5 μM test compound, 0.05% DMSO, 0.5 mg/mL microsomes, and ∼0.7–0.9 mM NADPH in 100 mM potassium phosphate buffer at pH 7.4. Reactions are terminated by the addition of 100 μL of the reaction mixture to 900 μL of acetonitrile after 0, 5, 15, 30, 45, and 60 min of incubation. Samples were centrifuged, and the resultant supernatant was analyzed by ultra-performance liquid chromatography–tandem mass spectrometry (UPLC-MS/MS). The amount of remaining compound is calculated and compared to the initial amount of test compound (zero time point). Verapamil is used as a positive control, and samples prepared without cofactor NADPH are used as a negative control (0 and 60 min). The in vitro metabolic stability parameters (half-life value (t1/2) and intrinsic clearance value (Clint)) are calculated from the slope of the Ln of concentration remaining vs the time curve.
A general note: Liver microsomes are vesicles of endoplasmic reticulum, rich in cytochrome P450 enzymes.

Series [2] in a line: Plasma protein binding (rapid equilibrium dialysis). Format: in vitro ADME. To be noted: pH 7.4, mouse plasma, 2 h at 37 °C. The procedure: Plasma protein binding was performed with rapid equilibrium dialysis (RED) device inserts containing a dialysis membrane with a molecular weight cut-off of 8000 Daltons. Inserts were placed in the single-use RED plate without prior preparation.
The test compound at a concentration of 5 μM was added to mouse plasma and dialyzed against phosphate-buffered saline (PBS, pH 7.4) for 2 h at 37 °C. Propranolol hydrochloride was used as a positive control (high PPB), and fluconazole was used as negative control (low PPB). After dialysis, the drug concentration in the buffer and plasma compartments was quantified by liquid chromatography and tandem mass spectrometry (LC-MS/MS) analysis.
Background: In equilibrium dialysis only unbound substance equilibrates across the membrane.

Series [3] can be described thus: Pharmacokinetics in mice (plasma, UPLC/MS/MS). Format: in vivo. To be noted: female, NMRI, mouse, po, p.os 50 mg/kg. Here is the method:
Animals were weighed on the day of the treatment (before treatment) to calculate the required amount of compound for the corresponding dose. For tolerability and PK studies, the mice were dosed via a peroral (PO) bolus administration (volume 10 mL/kg).
For the pharmacokinetics experiment, blood samples were collected in tubes containing heparin. […] Tubes were centrifuged at +4 °C 10,000g for 3 min. Plasma samples were collected and stored at −20 °C until analysis.
Concentrations of VAD259 in mouse plasma were measured by ultra-performance liquid chromatography–tandem mass spectrometry using Waters Acquity UPLC H-class chromatograph coupled to the Waters Xevo TQ-S micro mass spectrometer using the Waters Acquity UPLC BEH-C18 column (2.1 mm × 50 mm, 1.7 μm). Mobile phase A was 0.1% aqueous formic acid, and mobile phase B was acetonitrile.
The mass spectrometer was operated in positive electrospray ionization mode (ESI+), and data acquisition was performed in multiple reaction monitoring (MRM) modes with ionization parameters as follows: capillary energy of 3.0 kV, cone voltage of 25 V, and collision energy of 20 eV.
Blood plasma samples were processed using plasma protein precipitation. Then, 20 μL of plasma was mixed with 300 μL of acetonitrile/methanol (3:1/v:v) mixture, and the sample was centrifuged at 1000g for 10 min. The supernatant was further diluted 3 times with 0.1% aqueous formic acid and subjected to UPLC/MS/MS analysis.

For series [4], the system named is maturation of RAP1, substrate of PMIX. As to the kind of experiment: Western blot of RAP1 maturation in treated schizonts. The class given is cell-based, P. falciparum. The settings on record: 20 nM, 44 h. An excerpt: Figure 4 Macrocycle PMX inhibitors have no effect on intraerythrocytic parasite maturation but prevent egress and maturation of SUB1. […] Scale bar, 20 μm. (B) Simplified schematic of proteolytic maturation of the egress effector SUB1. Conversion of the precursor form to p54 is through autocatalytic removal[32] of the prodomain region (PD), whereas conversion of p54 to p47 is mediated by PMX.[15],[16],[33] (C) Left, Western blot analysis of P. falciparum 3D7 schizonts allowed to mature in the presence of the indicated macrocycle compounds (20 nM), showing defective SUB1 maturation in parasites treated with the indicated macrocycle compounds. Right, Western blot of the same extracts probed with a monoclonal antibody (mAb) specific to the rhoptry protein RAP1, which is a substrate for cleavage by the related P. falciparum protease PMIX. The compounds had no discernible effect on the maturation of RAP1. The results shown are typical of 3 independent experiments.
(§1) Synchronous parasite cultures were cultured from ring to schizont stage (∼44 h) in the presence of DMSO alone (0.04% v/v; control) or macrocycle compounds (20 nM final concentration). Schizonts were isolated by Percoll enrichment (still in the presence of the test compound), then either immediately frozen or further incubated in the absence of the drug but in the presence of C2 (1 μM) for 1 h at 37°C in the absence of added RBCs or for 3.5 h in the presence of added RBCs. The schizonts without added RBCs were then frozen too, and all schizont samples were then thawed into CHAPS–urea extraction buffer, subjected to sodium dodecyl sulfate-polyacrylamide gel electrophoresis (SDS-PAGE), and analyzed by Western blot, probing with antibodies against SUB1 or RAP1. For schizonts cultured in the presence of added RBCs, ring formation was assessed in two ways: cultures were examined microscopically by Giemsa stain of thin films and were also fixed with glutaraldehyde and processed for quantification of ring formation by flow cytometry as described above.

In series [5] the test system is SUB1 p54 to p47 conversion (PMX activity). In words: Washout assay, SUB1 maturation by Western blot. Format: cell-based, P. falciparum. The settings on record: 20 nM ∼44 h, C2 1 μM for 1 h. Here is the method: The schizont cultures lacking added RBCs were supplemented with compound C2, which blocks the discharge of exonemes, the parasite secretory organelles in which PMX and SUB1 are stored before egress. The schizonts without added RBCs were sampled for Western blot analysis, while the schizont cultures containing RBCs were examined by microscopy and flow cytometry after a further 4 h in culture to quantify schizont rupture and new ring formation.
as §1

Sequence of cathepsin D (CatD) (P07339 65-412): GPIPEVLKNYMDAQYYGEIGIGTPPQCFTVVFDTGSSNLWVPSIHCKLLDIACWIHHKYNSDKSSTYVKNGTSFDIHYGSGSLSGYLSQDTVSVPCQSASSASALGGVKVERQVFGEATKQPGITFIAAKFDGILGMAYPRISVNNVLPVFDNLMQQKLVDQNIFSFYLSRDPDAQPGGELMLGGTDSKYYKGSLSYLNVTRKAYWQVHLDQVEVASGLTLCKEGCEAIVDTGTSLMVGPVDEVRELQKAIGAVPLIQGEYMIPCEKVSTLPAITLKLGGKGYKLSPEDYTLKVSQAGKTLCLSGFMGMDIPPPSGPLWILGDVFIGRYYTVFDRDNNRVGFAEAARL

As usually defined, the IC50 is the midpoint of a concentration-inhibition curve. Higher therefore signals a need for much substance. By half-life is commonly meant the time in which the quantity being followed falls by half. A higher half-life goes with slow loss. A word on the fraction unbound: it is free concentration divided by total concentration. Read a high fraction unbound as much free substance. The term AUC(0-t) denotes the area under the concentration-time curve up to a stated or last time point. Read a high AUC(0-t) as more exposure. What is called Cmax is the maximum level reached in the sampled fluid or tissue. For orientation: Tmax means the time at which the peak concentration occurs. On cathepsin D (CatD), `CCCN1CCCCCc2cccc(c2)C[C@@H]([C@H](O)CNC(C)(C)c2cccc(OC)c2)NC(=O)c2cccc(c2)C1=O` [7k, (S)-4-((R)-1-Hydroxy-2-((2-(3-methoxyphenyl)propan-2-yl)amino)ethyl)-12-propyl-3,12-diaza-1,6(1,3)-dibenzenacyclotridecaphane-2,13-dione] yielded an IC50 of 330 ± 20 nM. Also, the “improvement of half-life in the microsomal stability test” value in series [1] (compared to the acyclic analogue 6a) worked out at 3 fold. In series [1] (pooled liver microsomes, pH 7.4, mouse liver microsomes, 5 μM), the half-life at 1 h, 5 μM came out at 16.9 min. For the same compound, the microsomal CLint at 1 h, 5 μM in series [1] (pooled liver microsomes, pH 7.4, mouse liver microsomes, 5 μM, read-out: microsomal stability CL(int)) was determined as 81.9 µL/min/mg. The fraction unbound at 2 h, 5 µM in series [2] is 0.0027. Moreover, in series [3], the AUC(0-t) at 6 h was 218 ng·h/mL, the peak concentration (Cmax) at 6 h is 64 ng/mL, the Tmax at 6 h amounted to 60 min and the half-life at 6 h is 53 min. For the same compound, in series [3] (read-out: AUC0-inf_obs), the AUC(0-inf) at 6 h was determined as 222 ng·h/mL. Moreover, the “maturation of RAP (PMIX substrate)” value in series [4] is on record as “do not affect PMIX activity at these concentrations”. Besides, the “SUB1 p54 to p47 conversion after washout” value in series [5] is “no conversion of SUB1 p54 to p47 occurred”.
